Reference: patent publication US20090182014A1, “INSECTICIDAL COMPOSITIONS COMPRISING COMPOUNDS HAVING INHIBITORY ACTIVITY VERSUS ACYL COA: CHOLESTEROL ACYLTRANSFERASE OR SALTS THEREOF AS EFFECTIVE INGREDIENTS” (priority 2003, published 2009)
Values after ≈ are worked out from the molar mass of the structure shown.

What was measured:
[1] = target: acyl CoA:cholesterol acyltransferase (ACAT); assay: Assay for ACAT inhibitory activity using hepatic microsomes, cholesterol and 14C-labeled oleoyl-CoA; type: biochemical
Experimental: In the method, ACAT activity was determined using hepatic microsomes as a source of ACAT with substrates of cholesterol and ^14C-labeled oleoyl-CoA. The radioactivity of the reaction product cholesterol ester was estimated as the ACAT activity.
In detail, a reaction mixture was prepared as follows. […] To stabilize enzyme reaction, bovine serum albumin was added to the mixture to a final concentration of 30 μM. Then, a sample dissolved in DMSO or methanol was added to the mixture. The resulting reaction mixture was preincubated at 37° C. for 30 min. The enzyme reaction was then initiated by adding [1-^14C]-oleoyl Coenzyme A solution to a final concentration of 0.04 μCi. After 30 min of incubation at 37° C., the reaction was stopped by addition of 1 ml of an isopropanol-heptane solution. Then, 0.6 ml of n-heptane and 0.4 ml of KPB buffer were added to the terminated reaction mixture. The mixture was well mixed and allowed to stand at room temperature for 2 min. After phase separation, 200 μl of the supernatant was put into a scintillation vial. After adding 4 ml of a scintillation cocktail (Lipoluma, Lumac Co.) to the vial, the amount of synthesized cholesteryl oleate was measured with a scintillation counter (Packard Delta-200). The inhibitory activity versus ACAT was calculated according to the following Equation 1:
Inhibitory activity (%)=[1−(T−B/C−B)]×100
T: cpm in a test reaction mixture that contains a compound of the present invention along with an enzyme source;

[2] = system: Tenebrio molitor L larvae; assay: Diet (wheat bran) assay against Tenebrio molitor L larvae: larval weight, growth, killing; type: in vivo; details: 1 mg mixed with 10 g wheat bran; for larval weight-reducing effect in T. molitor L larvae (FIG. 8): larval weight on day 3 and 7, compared with control
Experimental: Among the present compounds with an ACAT inhibitory activity, the phenylpyropene A, B and C (Formulas 2 to 4) were tested for weight-reducing effect in larval insects. In this test, larvae of Tenebrio molitor L. was used as an experimental insect, which was obtained from the insect research lab, KRIBB, Korea. Healthy second-instar larvae (10-12 mm) of Tenebrio molitor L was selected 24 hrs before performing this test. Each of the compounds of Formulas 2 to 4 was dissolved in 10% acetone to a final concentration of 1 mg/ml and serially diluted. 1 ml of the diluted compound solution was mixed with […] of wheat bran commonly used as a diet. The resulting mixture was put into a glass petri dish (90×20 mm), and the petri dish was placed in a desiccator for about 2 hrs under pressure to remove the organic solvent. After being weighed, 10 highly mobile larvae of T. molitor L for each test set were placed in a petri dish (87×15 mm) with a filter paper disk, together with the mixture of the present compound and wheat bran. Then, the larvae were grown in at 25±±1° C. under 40-45% relative humidity with a 16-hour light/8-hours dark cycle. After 72 hrs, larval weight and diet intake were recorded every three days. This assay was performed on three replicates, and a control group was treated with 10% acetone.

[3] = system: Plutella xylostella L larvae; assay: Leaf-disk bioassay against Plutella xylostella L larvae; type: in vivo; details: treated with 0.001 to 1 mg; investigated at intervals of 24 hrs; compared with control
Experimental: Larvae of Plutella xylostella L was used as an experimental insect in this test, which was obtained from the Insect Research Lab, Korean Research Institute of Bioscience and Biotechnology (KRIBB), Oun-dong, Yusong-ku, Taejon, Korea. After being weighed accurately, a proper amount of the present compounds with an ACAT inhibitory activity were was dissolved in acetone, mixed with nine volumes of a 100 ppm Triton X-100 stock solution, and serially diluted, thus giving active compound solutions. A diet for the growth of the P. xylostella L larvae was prepared, as follows: leaves of cabbages with uniform growth were cut into leaf disks (3.0 cm in diameter), dipped in the active compound solutions for 30 sec, and dried in a hood for 60 min. Each of the active compound-treated leaf disks was put in a petri dish (55×20 mm) with a filter paper disk. Then, 10 second-instar larvae of P. xylostella L were placed on each leaf disc using a soft brush with caution not to damage the larvae, and grown in an incubator (25±1° C., 40-45% relative humidity, 16L:8D). After 24 hrs and 48 hrs, mortality was recorded. […] This leaf-disk bioassay was performed on three replicates, and LC50 (50% lethal concentration) was calculated by the Probit method developed by Finney (1982).

[4] = hepatic microsomes as source of ACAT
[5] = calculated from the μg/ml value and molecular weight

Compound | larval growth inhibition in T. molitor L larvae (FIG. 9) [2] | larval weight-reducing effect in T. molitor L larvae (FIG. 8) [2] | ACAT inhibitory activity ([1]; concentration 20 μg/ml) [%] | ACAT inhibitory activity ([1]; concentration 100 μg/ml) [%] | further results
CC(=O)OCC1(C)C2C[C@H](OC(C)=O)[C@@]3(C)Oc4cc(-c5ccccc5)oc(=O)c4[C@H](O)C3[C@@]2(C)CC[C@@H]1OC(C)=O (stereo partly shown) [phenylpyropene A] | larval growth inhibition was found | lasting larval weight-reducing effect |  |  | IC50 ([1]; calculated from the ng/ml value and molecular weight): 0.086 µM; IC50 (compound concentration to inhibit by 50% of ACAT activity) [1, 4]: 0.5 µg/mL
Cc1cc(Cc2cc(C)cc(C(C)(C)C)c2O)c(O)c(C(C)(C)C)c1 [Formula 9] |  |  | 93.4 | 98.4 | 
CC(=O)OC[C@@]1(C)[C@@H]2C[C@H](OC(C)=O)[C@@]3(C)Oc4cc(-c5cccnc5)oc(=O)c4[C@H](O)[C@@H]3[C@@]2(C)CC[C@@H]1OC(C)=O [pyripyropene A] | larval growth inhibition was found |  |  |  | insecticidal effect against P. xylostella L larvae (FIG. 6) [3]: lasting insecticidal effect in a dose-dependant manner; T. molitor L insect killed in the larval and pupa stages [2]: most of the T. molitor L insect was killed in the larval and pupa stages
CC(=O)OCC1(C)C(OC(C)=O)CC[C@@]2(C)C1CC[C@@]1(C)Oc3cc(-c4ccccc4)oc(=O)c3CC21 (stereo partly shown) [phenylpyropene B] |  | lasting larval weight-reducing effect |  |  | IC50 [1, 5]: 12.8 µM; IC50 (ACAT activity) [1, 4]: 6.5 µg/mL (≈ 12.8 µM)
CC(=O)OC1CC[C@@]2(C)C(CC[C@@]3(C)Oc4cc(-c5ccccc5)oc(=O)c4CC23)C1(C)C (stereo partly shown) [phenylpyropene C] | larval growth inhibition was found | lasting larval weight-reducing effect |  |  | IC50 [1, 5]: 16 µM; IC50 (ACAT activity) [1, 4]: 7.2 µg/mL (≈ 16 µM)
CC(C)c1cccc(C(C)C)c1OC(=O)NS(=O)(=O)Oc1c(C(C)C)cccc1C(C)C [Formula 8] |  |  | 84.5 | 93.8 | 
pheophorbide a | larval growth inhibition was found |  |  |  | 
CCCCCCCC/C=C\CCCCCCCC(=O)Nc1c(OC)cc(OC)cc1OC [Formula 7] |  |  | 96.6 | 97.8 | 
CCCCCCCNC(=O)CCCCSC1NC(c2ccccc2)C(c2ccccc2)N1 (stereo not shown) [Formula 11] |  |  | 84.8 | 89.6 | 
O=C(/C=C/C=C/c1ccc2c(c1)OCO2)N1CCCCC1 [Formula 10] |  |  | 17.6 | 82.0 | 
